The results in this text go back to US9481670B2, “Triazine compounds” (Sphaera Pharma PTE. Ltd., priority 2011, dated 2016).

T1 sequence (P42336 whole entry): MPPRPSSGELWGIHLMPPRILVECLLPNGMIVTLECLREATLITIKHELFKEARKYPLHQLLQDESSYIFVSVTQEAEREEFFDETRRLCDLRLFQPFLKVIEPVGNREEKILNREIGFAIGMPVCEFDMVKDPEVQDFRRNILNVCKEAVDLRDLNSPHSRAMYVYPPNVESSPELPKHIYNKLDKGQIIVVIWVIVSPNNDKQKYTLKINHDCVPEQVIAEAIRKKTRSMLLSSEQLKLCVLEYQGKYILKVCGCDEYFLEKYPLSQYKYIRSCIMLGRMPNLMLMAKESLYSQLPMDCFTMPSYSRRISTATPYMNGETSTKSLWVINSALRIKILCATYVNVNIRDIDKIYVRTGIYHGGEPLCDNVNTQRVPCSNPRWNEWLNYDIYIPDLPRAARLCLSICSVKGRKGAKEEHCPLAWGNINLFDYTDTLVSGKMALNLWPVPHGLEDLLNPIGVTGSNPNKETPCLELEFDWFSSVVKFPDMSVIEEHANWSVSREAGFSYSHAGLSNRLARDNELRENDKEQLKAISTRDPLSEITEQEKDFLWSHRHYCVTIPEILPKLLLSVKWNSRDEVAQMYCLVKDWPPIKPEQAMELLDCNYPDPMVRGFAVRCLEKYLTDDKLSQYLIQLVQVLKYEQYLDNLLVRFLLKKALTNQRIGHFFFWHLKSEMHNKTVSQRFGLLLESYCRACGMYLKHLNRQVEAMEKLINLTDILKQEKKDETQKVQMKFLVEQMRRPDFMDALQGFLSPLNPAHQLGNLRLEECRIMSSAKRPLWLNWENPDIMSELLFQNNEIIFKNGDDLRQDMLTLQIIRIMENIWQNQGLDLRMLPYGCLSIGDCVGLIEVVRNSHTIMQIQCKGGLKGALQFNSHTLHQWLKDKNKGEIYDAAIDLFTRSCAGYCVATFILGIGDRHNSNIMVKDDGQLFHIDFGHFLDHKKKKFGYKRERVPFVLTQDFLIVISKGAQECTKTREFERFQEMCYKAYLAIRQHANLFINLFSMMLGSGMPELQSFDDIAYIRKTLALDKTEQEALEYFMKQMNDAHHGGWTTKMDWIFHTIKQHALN
T1 sequence (P27986 whole entry partner): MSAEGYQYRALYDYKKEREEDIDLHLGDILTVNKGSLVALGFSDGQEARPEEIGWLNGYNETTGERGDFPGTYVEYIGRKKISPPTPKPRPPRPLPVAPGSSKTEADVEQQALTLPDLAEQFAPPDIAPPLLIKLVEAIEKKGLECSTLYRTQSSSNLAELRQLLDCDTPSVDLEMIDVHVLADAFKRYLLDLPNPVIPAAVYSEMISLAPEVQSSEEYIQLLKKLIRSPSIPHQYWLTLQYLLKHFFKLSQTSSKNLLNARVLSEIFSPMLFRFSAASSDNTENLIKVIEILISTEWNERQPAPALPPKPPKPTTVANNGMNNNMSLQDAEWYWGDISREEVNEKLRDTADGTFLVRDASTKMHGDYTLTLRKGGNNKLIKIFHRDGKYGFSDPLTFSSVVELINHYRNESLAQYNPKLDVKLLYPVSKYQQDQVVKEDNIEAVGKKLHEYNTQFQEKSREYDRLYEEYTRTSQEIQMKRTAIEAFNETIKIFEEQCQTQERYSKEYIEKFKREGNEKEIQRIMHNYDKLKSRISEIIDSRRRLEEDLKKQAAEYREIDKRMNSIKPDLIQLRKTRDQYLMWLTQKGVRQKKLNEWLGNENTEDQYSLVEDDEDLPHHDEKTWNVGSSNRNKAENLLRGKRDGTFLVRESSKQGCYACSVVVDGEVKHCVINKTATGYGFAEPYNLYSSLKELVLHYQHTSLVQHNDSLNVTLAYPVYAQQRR

The test has as its target T1, PI3K alpha (Homo sapiens, UniProt P42336).
T1 construct: purchased Millipore Upstate
Kind of test: P110 Alpha TR-FRET Assay (PI3K alpha kinase assay, HTRF Transcreener ADP Assay). The settings on record: PI3K (WT). The class given is biochemical. On the procedure: PI3K alpha kinase assay may be done using HTRF Transcreener ADP Assay (Cisbio).
Composition of the reaction buffer was as follows 50 mM HEPES, pH 7.5, 5 mM MgCl2, 1 mM DTT, 30 μM Na3VO4. PI3 Kinase was procured from Millipore Upstate. […] ATP was used at final concentration of 10 μM. Corning 384 well white plates were used for the assay.
2 μl of diluted enzyme (50 ng), 3 μl of diluted compound and 5 μl of buffer were added, mixed then incubated for 20 minutes with shaking at 400 rpm. 3 μl of substrate (10 μM of ATP and 5 μM PIP2) were added to initiate the reaction. The samples were incubated for 20 min. At the end of the reaction time 10 μl of the Detection mix (5 μl of ADP-D2 and 5 μl of Anti-ADP-Cryptate) was added and the contents were incubated for 1 h. The reaction plate was directly read in an Envision Multilabel Plate Reader.
Background: TR-FRET usually uses a lanthanide donor and a delayed reading to cut background.
`CN(C)C(=O)c1ccc(Oc2nc(-c3ccc(N)cc3)nc(N3CCOCC3)n2)cc1` [Compound 1031, 4-14-{[4-1-(4-17-aminophenyl)-6-5-(morpholin-4-yl)-1,3,5-triazin-2-yl]oxy}-N,N-dimethylbenzamide]: the 50% inhibitory concentration (IC50) was less than 5 µM. Next, `CN(C)C(=O)c1ccc(Oc2nc(-c3cncc(N)c3)nc(N3CCOCC3)n2)cc1` [Compound 1032, 4-14-{[4-1-(5-26-aminopyridin-3-yl)-6-5-(morpholin-4-yl)-1,3,5-triazin-2-yl]oxy}-N,N-dimethylbenzamide]: less than 5 µM; `CN(C)C(=O)c1ccc(Oc2nc(-c3cccc4c(=O)[nH]ccc34)nc(N3CCOCC3)n2)cc1` [Compound 1033, N,N-dimethyl-4-14-{[4-5-(morpholin-4-yl)-6-1-(1-30-oxo-1,2-dihydroisoquinolin-5-yl)-1,3,5-triazin-2-yl]oxy}benzamide]: greater than 5 µM; `CN(C)C(=O)c1ccc(Oc2nc(-c3cccc4[nH]c(=O)[nH]c34)nc(N3CCOCC3)n2)cc1` [Compound 1034, N,N-dimethyl-4-14-{[4-5-(morpholin-4-yl)-6-1-(2-21-oxo-2,3-dihydro-1H-1,3-benzodiazol-4-yl)-1,3,5-triazin-2-yl]oxy}benzamide]: greater than 5 µM. Turning to `CN(C)C(=O)[C@H]1CC[C@H](Oc2nc(-c3ccc(N)nc3)nc(N3CCOCC3)n2)CC1` [Compound 1035, (1r,4r)-4-9-{[4-1-(6-12-aminopyridin-3-yl)-6-5-(morpholin-4-yl)-1,3,5-triazin-2-yl]oxy}-N,N-dimethylcyclohexane-1-carboxamide], the half-maximal inhibitory concentration (IC50) was less than 5 µM. Next, `CN(C)C(=O)c1ccc(Oc2nc(-c3ccnc(N)c3)nc(N3CCOCC3)n2)cc1` [Compound 1036, 4-14-{[4-1-(2-26-aminopyridin-4-yl)-6-5-(morpholin-4-yl)-1,3,5-triazin-2-yl]oxy}-N,N-dimethylbenzamide]: less than 5 µM; `Nc1ccc(-c2nc(SCc3ccccc3)nc(N3CCOCC3)n2)cn1` [Compound 1037, 5-(4-(benzylthio)-6-morpholino-1,3,5-triazin-2-yl)pyridin-2-amine]: less than 5 µM. Next, `CN(C)C(=O)c1ccc(Oc2nc(-c3cccc4[nH]ncc34)nc(N3CCNC(=O)CC3)n2)cc1` [Compound 1038, 4-7-{[4-5-(1H-indazol-4-yl)-6-3-(5-31-oxo-1,4-diazepan-1-yl)-1,3,5-triazin-2-yl]oxy}-N,N-dimethylbenzamide]: greater than 5 µM; `CN(C)C(=O)c1ccc(Oc2nc(-c3cccc4[nH]ncc34)nc(N3CCCC(C(N)=O)C3)n2)cc1` (stereo not drawn) [Compound 1039, 1-27-{4-1-[4-10-(dimethylcarbamoyl)phenoxy]-6-5-(1H-indazol-4-yl)-1,3,5-triazin-2-yl}piperidine-3-carboxamide]: greater than 5 µM. `CN(C)C(=O)c1cccc(Nc2nc(-c3cnc(N)nc3)nc(N3CCOCC3)n2)c1` [Compound 1040, 3-((4-(2-aminopyrimidin-5-yl)-6-morpholino-1,3,5-triazin-2-yl)amino)-N,N-dimethylbenzamide] had an IC50 of less than 5 µM. Consider `CN(C)C(=O)c1ccc(Oc2nc(-c3cnc4[nH]ccc4c3)nc(N3CCOCC3)n2)cc1` [Compound 1041, N,N-dimethyl-4-8-{[4-5-(morpholin-4-yl)-6-1-{1H-pyrrolo[2,3-b]pyridin-5-yl}-1,3,5-triazin-2-yl]oxy}benzamide], for which the half-inhibitory concentration (IC50) was less than 5 µM. Compound `Nc1ncc(-c2nc(N3CCOCC3)nc(N3CCOCC3)n2)s1` [Compound 1042, 5-7-[4-3,6-5-bis(morpholin-4-yl)-1,3,5-triazin-2-yl]-1,3-thiazol-2-amine] gave a 50% inhibitory concentration (IC50) of less than 5 µM. For `CN(C)C(=O)c1ccc(Oc2nc(-c3cccc4[nH]ncc34)nc(N3CCOc4ccccc43)n2)cc1` [Compound 1043, 4-9-{[4-5-(3,4-dihydro-2H-1,4-benzoxazin-4-yl)-6-1-(1H-indazol-4-yl)-1,3,5-triazin-2-yl]oxy}-N,N-dimethylbenzamide] the value was greater than 5 µM; for `CN(C)C(=O)c1ccc(Oc2nc(-c3cccc4[nH]ncc34)nc(N3CCC(=O)CC3)n2)cc1` [Compound 1044, 4-8-{[4-5-(1H-indazol-4-yl)-6-3-(4-30-oxopiperidin-1-yl)-1,3,5-triazin-2-yl]oxy}-N,N-dimethylbenzamide], greater than 5 µM. The compound `Cc1nc(N2CCOCC2)nc(N2CCOCC2)n1` [Compound 1045, 2-1-methyl-4-5,6-3-bis(morpholin-4-yl)-1,3,5-triazine] returned an IC50 greater than 5 µM. `NC(=O)c1cccc(Nc2nc(-c3cnc(N)nc3)nc(N3CCOCC3)n2)c1` [Compound 1046, 3-((4-(2-aminopyrimidin-5-yl)-6-morpholino-1,3,5-triazin-2-yl)amino)benzamide] returned a half-inhibitory concentration (IC50) of less than 5 µM. Next, `CN(C)C(=O)c1ccc(Oc2nc(-c3cccc4[nH]ncc34)nc(N3CC(C(N)=O)C3)n2)cc1` [Compound 1047, 1-7-{4-1-[4-11-(dimethylcarbamoyl)phenoxy]-6-5-(1H-indazol-4-yl)-1,3,5-triazin-2-yl}azetidine-3-carboxamide]: greater than 5 µM.

For the compound `CS(=O)(=O)N[C@H]1CCC[C@H](Oc2nc(-c3cccc4c3cnn4S(C)(=O)=O)nc(N3CCOCC3)n2)C1` [Compound 1048, N-[(1S,3S)-3-14-{[4-1-(1-27-methanesulfonyl-1H-indazol-4-yl)-6-5-(morpholin-4-yl)-1,3,5-triazin-2-yl]oxy}cyclohexyl]methanesulfonamide], the IC50 was less than 5 µM. Next, `CN(C)C(=O)N1CCN(Cc2nc(-c3ccc(N)nc3)nc(N3CCOCC3)n2)CC1` [Compound 1049, 4-((4-(6-aminopyridin-3-yl)-6-morpholino-1,3,5-triazin-2-yl)methyl)-N,N-dimethylpiperazine-1-carboxamide]: less than 5 µM; `CN(C)C(=O)c1ccc(Oc2nc(-c3cccc4[nH]nnc34)nc(N3CCOCC3)n2)cc1` [Compound 1050, 4-14-{[4-1-(1H-1,2,3-benzotriazol-4-yl)-6-5-(morpholin-4-yl)-1,3,5-triazin-2-yl]oxy}-N,N-dimethylbenzamide]: greater than 5 µM. Next, `Nc1ncc(-c2nc(N3CCOCC3)nc(N3CCNC(=O)CC3)n2)cn1` [Compound 1051, 1-6-[4-1-(2-22-aminopyrimidin-5-yl)-6-5-(morpholin-4-yl)-1,3,5-triazin-2-yl]-1,4-diazepan-5-one]: less than 5 µM; `CN(C)C(=O)c1ccc(Oc2nc(-c3ccc4[nH]ccc4c3)nc(N3CCOCC3)n2)cc1` [Compound 1052, 4-14-{[4-1-(1H-indol-5-yl)-6-5-(morpholin-4-yl)-1,3,5-triazin-2-yl]oxy}-N,N-dimethylbenzamide]: less than 5 µM. Compound `Nc1ncc(-c2nc(N3CCOCC3)nc(N3CCN(S(N)(=O)=O)CC3)n2)cn1` [Compound 1053, 4-6-[4-1-(2-16-aminopyrimidin-5-yl)-6-5-(morpholin-4-yl)-1,3,5-triazin-2-yl]piperazine-1-sulfonamide] yielded an IC50 of less than 5 µM. For `O=C1CCc2ccc(Oc3nc(-c4cccc5[nH]ncc45)nc(N4CCOCC4)n3)cc2N1` [Compound 1054, 7-14-{[4-1-(1H-indazol-4-yl)-6-5-(morpholin-4-yl)-1,3,5-triazin-2-yl]oxy}-1,2,3,4-tetrahydroquinolin-2-one] the value was less than 5 µM.

In general, IC50 refers to the midpoint of a concentration-inhibition curve. A high value points to weaker potency.
